# Assays:
# brain cancer cells SF126 = assay: tumor sphere formation assay of brain cancer cells; type: cell-based; conditions: 1 μM, 3 μM, or 10 μM, 7 d; FIG. 25
# Excerpt: (§1) As a gold standard for detecting the self-renewal capability of cancer stem cells in vitro, a tumor sphere formation assay may detect individual cancer stem cell that continuously self-renew in a conditioned medium and form tumor spheres consisting of multiple cells. This in vitro experiment is often used to test the responsiveness of clinical patients to anticancer drugs, and guide in vivo medication of the clinical patients.
# [1] = test system: breast cancer cells MDA-MB-231, 4T1, 168FARN, 67NR, 4TO7; assay: tumor sphere formation assay of breast cancer cells; type: cell-based; conditions: 1 μM, 3 μM, or 10 μM, 7 d; FIG. 11
# Excerpt: as §1
# Experimental results in FIG. 11 show the number of tumor spheres from at least 3 independent experiments and representative tumor sphere photos.
# hematoma cells SU-DHL-8 = assay: tumor sphere formation assay of hematoma cells; type: cell-based; conditions: 1 μM, 3 μM, or 10 μM, 7 d; FIG. 18
# Excerpt: as §1
# [2] = test system: prostate cancer cells PC-3, DU145, RM-1; assay: tumor sphere formation assay of prostate cancer cells; type: cell-based; conditions: 1 μM, 3 μM, or 10 μM, 7 d; FIG. 19
# Excerpt: as §1
# B16F10 melanoma cells = assay: tumorigenesis experiment with SX-pretreated melanoma cells; type: in vivo, mice; conditions: cells treated with 10 μM SX for 3 d
# Description: (§2) Experimental method and steps: Cancer cells were treated with salmeterol xinafoate (SX) in vitro for 3-7 d, and a subcutaneous or orthotopic tumorigenesis experiment was conducted on mice.
# B16F10 melanoma cells were treated with 10 μM salmeterol xinafoate (SX) for 3 d, and cells (1×10^6/mouse) were subcutaneously injected on both sides of the back of mice in a control group and an SX treated group (4 mice/group) to conduct a tumorigenesis experiment. Cancers formed subcutaneously at all 8 injection sites of 4 mice in the control group, and cancers formed subcutaneously also at all 8 injection sites of 4 mice in the SX treated group.
# Experimental results in FIG. 10 show cancer growth curves and representative cancer photos.
# a variety of cancers = assay: orthotopic or subcutaneous tumorigenesis experiments in mice, summary; conditions: summary of in vivo tumorigenesis experiments; drug concentration of 10 μM
# Description: as §2
# [3] = test system: pancreatic cancer cells CFPAC-1, PANC-1; assay: tumor sphere formation assay of pancreatic cancer cells; type: cell-based; conditions: 1 μM, 3 μM, or 10 μM, 7 d; FIG. 24
# Excerpt: as §1
# [4] = test system: CAL-27 head and neck cancer cells; assay: subcutaneous tumorigenesis experiment with SX-pretreated head and neck cancer cells; type: in vivo, mice; conditions: cells treated with 10 μM SX for 3 d, 1×10^6/mouse; FIG. 7; P<0.0001 vs control
# Description: as §2
# CAL-27 head and neck cancer cells were treated with 10 μM salmeterol xinafoate (SX) for 3 d, and cells (1×10^6/mouse) were subcutaneously injected on both sides of the back of mice in a control group and an SX treated group (3 mice/group) to conduct a tumorigenesis experiment.
# Experimental results in FIG. 7 show cancer growth curves.
# [5] = test system: KYSE-150 esophageal cancer cells; assay: subcutaneous tumorigenesis experiment with SX-pretreated esophageal cancer cells; type: in vivo, mice; conditions: cells treated with 10 μM SX for 3 d, 1×10^6/mouse; FIG. 8; P<0.0001 vs control
# Description: as §2
# KYSE-150 esophageal cancer cells were treated with 10 μM salmeterol xinafoate (SX) for 3 d, and cells (1×10^6/mouse) were subcutaneously injected on both sides of the back of mice in a control group and an SX treated group (3 mice/group) to conduct a tumorigenesis experiment.
# Experimental results in FIG. 8 show cancer growth curves.
# [6] = test system: gastric cancer cells SNU-1; assay: tumor sphere formation assay of gastric cancer cells; type: cell-based; conditions: 10 μM, 7 d; FIG. 23; P<0.001
# Excerpt: as §1
# According to culture conditions in Table 13, gastric cancer cells SNU-1 were subjected to a tumor sphere formation assay, and treated with salmeterol xinafoate (SX) at a concentration of 10 μM.
compound,measurement,setting,value
OCc1cc(C(O)CNCCCCCCOCCCCc2ccccc2)ccc1O (centres unmarked) [salmeterol xinafoate],number of tumor spheres (self-renewal capability of cancer stem cells),brain cancer cells SF126,inhibited the self-renewal capability of the brain cancer stem cells in a concentration dependent manner
same,number of tumor spheres (self-renewal capability of cancer stem cells),[1],inhibited the self-renewal capability of the breast cancer stem cells in a concentration dependent manner
same,number of tumor spheres (self-renewal capability of cancer stem cells),hematoma cells SU-DHL-8,inhibited the self-renewal capability of the hematoma stem cells in a concentration dependent manner
same,number of tumor spheres (self-renewal capability of cancer stem cells),[2],inhibited the self-renewal capability of the prostate cancer stem cells in a concentration dependent manner
same,cancers formed subcutaneously at injection sites,"B16F10 melanoma cells; 1×10^6/mouse, 8 injection sites of 4 mice, control group all 8 sites",8
same,cancer growth curves (initiation and progression),"B16F10 melanoma cells; FIG. 10, P<0.0001 vs control",inhibits the initiation and progression of orthotopic melanoma
same,cancer initiation and cancer growth,a variety of cancers,not only inhibiting cancer initiation but also significantly inhibiting cancer growth
same,number of tumor spheres (self-renewal capability of cancer stem cells),[3],inhibited the self-renewal capability of the pancreatic cancer stem cells in a concentration dependent manner
same,cancer growth curves (initiation and progression),[4],inhibits the initiation and progression of subcutaneous head and neck cancer
same,cancer growth curves (initiation and progression),[5],inhibits the initiation and progression of subcutaneous esophageal cancer
same,number of tumor spheres (self-renewal capability of cancer stem cells),[6],inhibited the self-renewal capability of the gastric cancer stem cells

# — patent US20260216103A1, “USE OF LONG-ACTING ß2AR AGONIST IN PREPARATION OF DRUGS FOR TREATING CANCERS” (HONG KONG SXMETEROL PHARMACEUTICAL CO., LIMITED, priority 2023, published 2026)
